According to US9988420B2, “Cytotoxic peptides and conjugates thereof” (priority 2013, dated 2018):

Columns and labels:
[1] = test system: CMK11-5 cells; assay: In vitro cell killing assay of payloads (cell proliferation, Cell-Titer-Glo); format: cell-based; conditions: Homo sapiens, 120 h; CMK-11-5 cells; Cell-Titer-Glo after five days
[2] = test system: HCC1954 cells; assay: as above; format: cell-based; conditions: Homo sapiens, 120 h; HCC1954 cells; Cell-Titer-Glo after five days; Table 2a; read-out: In vitro cell killing (IC50 (nM)) HCC1954
[3] = test system: JimT1 cells; assay: as above; format: cell-based; conditions: Homo sapiens, JIMT-1, 120 h; JimT1 cells; Cell-Titer-Glo after five days; Table 2a; read-out: In vitro cell killing (IC50 (nM)) JimT1
[4] = test system: Jurkat cells; assay: as above; format: cell-based; conditions: Homo sapiens, 120 h, Cell-Titer-Glo after five days
[5] = test system: KU812 cells; assay: as above; format: cell-based; conditions: Homo sapiens, 120 h, Cell-Titer-Glo after five days
[6] = test system: MDA-MB231 clone 16 cells; assay: as above; format: cell-based; conditions: Homo sapiens, 120 h; MDA-MB-231 clone 16 cells; Cell-Titer-Glo after five days
[7] = test system: MDA-MB231 clone 40 cells; assay: as above; format: cell-based; conditions: Homo sapiens, 120 h; MDA-MB-231 clone 40 cells; Cell-Titer-Glo after five days
[8] = test system: H526 cells; assay: as above; format: cell-based; conditions: Homo sapiens, 120 h; NCI-H526 cells; Cell-Titer-Glo after five days; Table 2a; read-out: In vitro cell killing (IC50 (nM)) NCI-H526
[9] = acidic condition

Compound	IC50 [1] [nM]	IC50 [2] [nM]	IC50 [3] [nM]	IC50 [4] [nM]	IC50 [5] [nM]	IC50 [6] [nM]	IC50 [7] [nM]	IC50 [8] [nM]	hydrolysis of the ester [9]
CC[C@H](C)[C@@H]([C@@H](CC(=O)N1CCC[C@H]1[C@H](OC)[C@@H](C)C(=O)N[C@H](C)[C@@H](O)c1ccccc1)OC)N(C)C(=O)[C@@H](NC(=O)[C@H]1N[C@@H]2CC[C@H]1C2)C(C)C [Compound 3, (1R,3S,4S)-N-((S)-1-(((3R,4S,5S)-1-((S)-2-((1R,2R)-3-(((1S,2R)-1-Hydroxy-1-phenylpropan-2-yl)amino)-1-methoxy-2-methyl-3-oxopropyl)pyrrolidin-1-yl)-3-methoxy-5-methyl-1-oxoheptan-4-yl)(methyl)amino)-3-methyl-1-oxobutan-2-yl)-2-azabicyclo[2.2.1]heptane-3-carboxamide]	14.7	10.8	42.1	3.01	6.78	12.7	23.9	22	
CCCCOP(=O)(O)[C@H](Cc1ccccc1)NC(=O)[C@H](C)[C@@H](OC)[C@@H]1CCCN1C(=O)C[C@@H](OC)[C@H]([C@@H](C)CC)N(C)C(=O)[C@@H](NC(=O)[C@@H]1[C@H]2CC[C@H](C2)N1C(=O)CCCCCN1C(=O)C=CC1=O)C(C)C [Compound 29, Butyl hydrogen ((R)-1-((2R,3R)-3-((S)-1-((3R,4S,5S)-4-((S)-2-((1R,3S,4S)-2-(6-(2,5-dioxo-2,5-dihydro-1H-pyrrol-1-yl)hexanoyl)-2-azabicyclo[2.2.1]heptane-3-carboxamido)-N,3-dimethylbutanamido)-3-methoxy-5-methylheptanoyl)pyrrolidin-2-yl)-3-methoxy-2-methylpropanamido)-2-phenylethyl)phosphonate]									prone to hydrolysis in acidic condition
CC[C@H](C)[C@@H]([C@@H](CC(=O)N1CCC[C@H]1[C@H](OC)[C@@H](C)C(=O)N[C@@H](Cc1ccccc1)C(=O)NS(=O)(=O)CCCN=[N+]=[N-])OC)N(C)C(=O)[C@@H](NC(=O)[C@@H]1[C@H]2CC[C@H](C2)N1C)C(C)C [Compound 46, (1R,3S,4S)-N-((S)-1-(((3R,4S,5S)-1-((S)-2-((1R,2R)-3-(((S)-N-1-(3-Azidopropylsulfonamido)-1-oxo-3-phenylpropan-2-yl)amino)-1-methoxy-2-methyl-3-oxopropyl)pyrrolidin-1-yl)-3-methoxy-5-methyl-1-oxoheptan-4-yl)(methyl)amino)-3-methyl-1-oxobutan-2-yl)-2-methyl-2-azabicyclo[2.2.1]heptane-3-carboxamide]	10.4	2.3	14.2	6.1	8.4	8.1	11.7	29.5	
